Counter-ions that a name gives are not always drawn.
Columns and labels:
[1] = system: motoneuron cells derived from iPS cells having SOD1-L144FVX mutation; test: survival of motoneuron cells induced from ALS patient iPS cells (SOD1 mutation); conditions: for dose correlation in the protection effect on motoneuron cell having SOD1 mutation: FIG. 2, FIG. 6; for MN index (motoneuron cell survival number ratio as compared to negative control): SOD1-L144FVX motoneuron cells contacted with medicament for 7 days, negative control DMSO; for survival of motor neuron: familial ALS (mSOD1 ALS) motoneuron cells, 0, 0.01, 0.1, 1, 10 μM, n=6, p<0.05, FIG. 7; for cell survival rate improvement, SOD1 mutation / cell survival rate improving effect, significance, SOD1 mutation: added on day 7, survived motoneuron cells counted on day 14
[2] = system: motoneuron cells derived from iPS cells of ALS patients having C9orf72 mutation; test: survival of motoneuron cells induced from ALS patient iPS cells (C9orf72 mutation); format: cell-based, human; conditions: for cell survival rate improvement, C9orf72 mutation / cell survival rate improving effect, significance, C9orf72 mutation: added on day 7, survived motoneuron cells counted on day 14
[3] = system: motoneuron cells derived from iPS cells of sporadic ALS patients; test: survival of motoneuron cells induced from sporadic ALS patient iPS cells; format: cell-based, human; conditions: added on day 7, survived motoneuron cells counted on day 14

CC(O)CC(=O)O (racemic) [3-hydroxybutyric acid]
dose correlation in the protection effect on motoneuron cell having SOD1 mutation [1]: increase in the effect in a dose-dependent manner

CCN(CC)Cc1cc(Nc2ccnc3cc(Cl)ccc23)ccc1O [AMODIAQUINE DIHYDROCHLORIDE, AMODIAQUINE]
MN index (motoneuron cell survival number ratio as compared to negative control) [1]: 8.98

CN1CCc2cccc3c2[C@H]1Cc1ccc(O)c(O)c1-3 [APOMORPHINE HYDROCHLORIDE, APOMORPHINE]
MN index (motoneuron cell survival number ratio as compared to negative control) [1]: 7.26

O=C(Nc1c[nH]nc1-c1nc2cc(CN3CCOCC3)ccc2[nH]1)NC1CC1 [AT9283]
survival of motor neuron [1]: increased survival of motor neuron

CNC(=O)c1ccccc1Sc1ccc2c(/C=C/c3ccccn3)n[nH]c2c1 [Axitinib]
efficacy for ALS having C9orf72 mutation (conclusion from Tables 5 and 6) [2]: higher efficacy
cell survival rate improvement, C9orf72 mutation [2]: ○ (cell survival rate improvement not less than 20%)
cell survival rate improving effect, significance, C9orf72 mutation [2]: ○ (significant difference (p < 0.05))
cell survival rate improvement, sporadic [3]: x (cell survival rate improvement less than 20%)
cell survival rate improving effect, significance, sporadic [3]: x (no significant difference (p ≧ 0.05))
dose correlation in the protection effect on motoneuron cell having SOD1 mutation [1]: increase in the effect in a dose-dependent manner
MN index (motoneuron cell survival number ratio as compared to negative control) [1]: 7.35
cell survival rate improvement, SOD1 mutation [1]: x (cell survival rate improvement less than 20%)
cell survival rate improving effect, significance, SOD1 mutation [1]: x (no significant difference (p ≧ 0.05))

CCOc1ccn(-c2ccc(F)cc2)c(=O)c1C(=O)Nc1ccc(Oc2ccnc(N)c2Cl)c(F)c1 [BMS 777607]
MN index (motoneuron cell survival number ratio as compared to negative control) [1]: 8.55

Cn1cnc2cc3c(Nc4cccc(Br)c4)ncnc3cc21 [BPIQ-I]
MN index (motoneuron cell survival number ratio as compared to negative control) [1]: 8.14

CCCCOC(=O)c1ccc(N)cc1 [BUTAMBEN]
MN index (motoneuron cell survival number ratio as compared to negative control) [1]: 7.39

Cc1ccc(NC(=O)c2ccc(CN3CC[C@H](N(C)C)C3)c(C(F)(F)F)c2)cc1Nc1nccc(-c2cncnc2)n1 [Bafetinib]
survival of motor neuron [1]: increased survival of motor neuron

CCNC(=O)CCC/C=C\C[C@@H]1[C@@H](/C=C/[C@@H](O)CCc2ccccc2)[C@H](O)C[C@@H]1O [Bimatoprost]
dose correlation in the protection effect on motoneuron cell having SOD1 mutation [1]: increase in the effect in a dose-dependent manner

COc1cc(Nc2c(C#N)cnc3cc(OCCCN4CCN(C)CC4)c(OC)cc23)c(Cl)cc1Cl [Bosutinib]
cell survival rate improvement, C9orf72 mutation [2]: ○ (cell survival rate improvement not less than 20%)
cell survival rate improving effect, significance, C9orf72 mutation [2]: ○ (significant difference (p < 0.05))
cell survival rate improvement, sporadic [3]: ○ (cell survival rate improvement not less than 20%)
cell survival rate improving effect, significance, sporadic [3]: ○ (significant difference (p < 0.05))
cell survival rate improvement, SOD1 mutation [1]: ○ (cell survival rate improvement not less than 20%)
cell survival rate improving effect, significance, SOD1 mutation [1]: ○ (significant difference (p < 0.05))

Cc1nc(N)sc1-c1ccnc(Nc2ccc(N3CCOCC3)cc2)n1 [CYC116]
MN index (motoneuron cell survival number ratio as compared to negative control) [1]: 8.14

CCN(CC)C(=O)c1ccc(Nc2nc(OCC3CCCCC3)c3nc[nH]c3n2)cc1 [Cdk2 Inhibitor IV, NU6140]
MN index (motoneuron cell survival number ratio as compared to negative control) [1]: 7.08

C[C@@H](Oc1cc(-c2cnn(C3CCNCC3)c2)cnc1N)c1c(Cl)ccc(F)c1Cl [Crizotinib (PF- 2341066), Crizotinib]
MN index (motoneuron cell survival number ratio as compared to negative control) [1]: 7.60

C[C@@H](Oc1cc(-c2cnn(C3CCNCC3)c2)cnc1N)c1c(Cl)ccc(F)c1Cl [Crizotinib]
cell survival rate improvement, C9orf72 mutation [2]: x (cell survival rate improvement less than 20%)
cell survival rate improving effect, significance, C9orf72 mutation [2]: ○ (significant difference (p < 0.05))
cell survival rate improvement, sporadic [3]: x (cell survival rate improvement less than 20%)
cell survival rate improving effect, significance, sporadic [3]: x (no significant difference (p ≧ 0.05))
efficacy for ALS having SOD1 mutation (conclusion from Tables 5 and 6) [1]: higher efficacy
dose correlation in the protection effect on motoneuron cell having SOD1 mutation [1]: increase in the effect in a dose-dependent manner
cell survival rate improvement, SOD1 mutation [1]: ○ (cell survival rate improvement not less than 20%)
cell survival rate improving effect, significance, SOD1 mutation [1]: ○ (significant difference (p < 0.05))

CC1=NN(c2ccccc2)C(=O)C1 [Edaravone]
dose correlation in the protection effect on motoneuron cell having SOD1 mutation [1]: increase in the effect in a dose-dependent manner

Cn1cc(C2=C(c3cn(C4CCN(Cc5ccccn5)CC4)c4ccccc34)C(=O)NC2=O)c2ccccc21 [Enzastaurin]
MN index (motoneuron cell survival number ratio as compared to negative control) [1]: 9.84

O=C(O)CCC(=O)c1ccc(-c2ccccc2)cc1 [FENBUFEN]
MN index (motoneuron cell survival number ratio as compared to negative control) [1]: 7.22

CC1(C)O[C@@H]2C[C@H]3[C@@H]4C[C@H](F)C5=CC(=O)C=C[C@]5(C)[C@H]4[C@@H](O)C[C@]3(C)[C@]2(C(=O)CO)O1 [FLUNISOLIDE]
MN index (motoneuron cell survival number ratio as compared to negative control) [1]: 7.86

COc1ccc2c(c1OC)C(=O)OC2C1c2cc3c(cc2CCN1C)OCO3 [HYDRASTINE (1R,9S)]
MN index (motoneuron cell survival number ratio as compared to negative control) [1]: 7.53

Oc1ccc(O)cc1 [HYDROQUINONE]
MN index (motoneuron cell survival number ratio as compared to negative control) [1]: 7.96

Cc1ccc(NC(=O)c2ccc(CN3CCN(C)CC3)cc2)cc1Nc1nccc(-c2cccnc2)n1 [Imatinib]
survival of motor neuron [1]: increased survival of motor neuron

O=C1Nc2ccccc2/C1=C1/Nc2ccccc2/C1=N\O [Indirubin-3′-monoxime]
MN index (motoneuron cell survival number ratio as compared to negative control) [1]: 7.54

O=C(c1ccc(/C=C/c2n[nH]c3ccccc23)cc1)N1CCNCC1 [KW 2449]
MN index (motoneuron cell survival number ratio as compared to negative control) [1]: 7.72

Cn1cnc(-c2cc3nccc(Oc4ccc(NC(=S)NC(=O)Cc5ccccc5)cc4F)c3s2)c1 [MGCD-265]
MN index (motoneuron cell survival number ratio as compared to negative control) [1]: 7.62

Cc1cn(-c2cc(NC(=O)c3ccc(C)c(Nc4nccc(-c5cccnc5)n4)c3)cc(C(F)(F)F)c2)cn1 [Nilotinib]
survival of motor neuron [1]: increased survival of motor neuron

O=C(/C=C/C=C/c1ccc2c(c1)OCO2)N1CCCCC1 [PIPERINE]
MN index (motoneuron cell survival number ratio as compared to negative control) [1]: 7.39

Cc1ccc(Nc2nccc(N(C)c3ccc4c(C)n(C)nc4c3)n2)cc1S(N)(=O)=O [Pazopanib Hydrochloride]
MN index (motoneuron cell survival number ratio as compared to negative control) [1]: 9.53

Cc1ccc(Nc2nccc(N(C)c3ccc4c(C)n(C)nc4c3)n2)cc1S(N)(=O)=O [Pazopanib]
cell survival rate improvement, C9orf72 mutation [2]: ○ (cell survival rate improvement not less than 20%)
cell survival rate improving effect, significance, C9orf72 mutation [2]: ○ (significant difference (p < 0.05))
cell survival rate improvement, sporadic [3]: x (cell survival rate improvement less than 20%)
cell survival rate improving effect, significance, sporadic [3]: x (no significant difference (p ≧ 0.05))
cell survival rate improvement, SOD1 mutation [1]: x (cell survival rate improvement less than 20%)
cell survival rate improving effect, significance, SOD1 mutation [1]: ○ (significant difference (p < 0.05))

Cc1cc2nc3c(=O)[nH]c(=O)nc-3n(C[C@H](O)[C@H](O)[C@H](O)CO)c2cc1C [RIBOFLAVIN]
MN index (motoneuron cell survival number ratio as compared to negative control) [1]: 9.55

O=C(c1ccc(OCCN2CCCCC2)cc1)c1c(-c2ccc(O)cc2)sc2cc(O)ccc12 [Raloxifene]
dose correlation in the protection effect on motoneuron cell having SOD1 mutation [1]: increase in the effect in a dose-dependent manner

CNC(=O)c1cc(Oc2ccc(NC(=O)Nc3cc(C(C)(C)C)nn3-c3ccc4ncccc4c3)c(F)c2)ccn1 [Rebastinib]
survival of motor neuron [1]: increased survival of motor neuron

O=C1c2ccccc2-c2n[nH]c3cccc1c23 [SP600125]
MN index (motoneuron cell survival number ratio as compared to negative control) [1]: 8.38

COc1ccc2c(c1)/C(=C/c1c[nH]cn1)C(=O)N2 [SU9516]
MN index (motoneuron cell survival number ratio as compared to negative control) [1]: 8.39

CCN(CC)CCNC(=O)c1c(C)[nH]c(/C=C2\C(=O)Nc3ccc(F)cc32)c1C [Sunitinib]
cell survival rate improvement, C9orf72 mutation [2]: ○ (cell survival rate improvement not less than 20%)
cell survival rate improving effect, significance, C9orf72 mutation [2]: ○ (significant difference (p < 0.05))
cell survival rate improvement, sporadic [3]: ○ (cell survival rate improvement not less than 20%)
cell survival rate improving effect, significance, sporadic [3]: ○ (significant difference (p < 0.05))
cell survival rate improvement, SOD1 mutation [1]: ○ (cell survival rate improvement not less than 20%)
cell survival rate improving effect, significance, SOD1 mutation [1]: ○ (significant difference (p < 0.05))

NCCNc1ncc(C(N)=O)c(Nc2cccc(C(F)(F)F)c2)n1 [Syk Inhibitor II]
MN index (motoneuron cell survival number ratio as compared to negative control) [1]: 7.59

Cc1cc(Nc2cc(N3CCN(C)CC3)nc(Sc3ccc(NC(=O)C4CC4)cc3)n2)n[nH]1 [VX-680, tozasertib]
MN index (motoneuron cell survival number ratio as compared to negative control) [1]: 9.58

O=C1NC(=O)c2c1c(-c1ccccc1Cl)cc1[nH]c3ccc(O)cc3c21 [Weel Inhibitor]
MN index (motoneuron cell survival number ratio as compared to negative control) [1]: 7.18

Cc1c(C)c2c(c(C)c1O)CC[C@@](C)(CCC[C@H](C)CCC[C@H](C)CCCC(C)C)O2 [alpha- TOCHOPHEROL, alpha-TOCHOPHEROL]
MN index (motoneuron cell survival number ratio as compared to negative control) [1]: 9.46

Bosutinib [Bosutinib (SKI-606)]
MN index (motoneuron cell survival number ratio as compared to negative control) [1]: 7.20

Sunitinib Malate
MN index (motoneuron cell survival number ratio as compared to negative control) [1]: 8.13
